Earlier results on three compounds are cited in patent US20260183298A1, “VIRAL PROPHYLAXIS TREATMENT METHODS AND PRE-EXPOSURE PROPHYLAXIS KITS” (priority 2022, published 2026).

The test system of series [1] is EHV. Conditions: about 75% of the horses infected with EHV; all horses treated with valacyclovir.
In series [2] the test system is cytochrome p450.
The conditions of series [3]: in vivo.
For series [4], the system named is HSV-1, HSV-2, HSV-8 (Kaposi's Sarcoma Virus), Vaccinia and Cowpox viruses.

As to `CC(C)[C@H](N)C(=O)OCCOCn1cnc2c(=O)[nH]c(N)nc21` [Valacyclovir, valacyclovir], in series [1], the “progression to severe neurological disease” value is given as “none progressed to severe neurological disease”. Further, the “metabolism by cytochrome p450” value in series [2] is reported as “not metabolized by cytochrome p450”. In addition, the “time to clear through the kidneys” value in series [3] is reported as “less than 24 hours”. The Renal clearance (following a single 1 g dose) is on record as 255 mL/min. Further, the “Mean Cmax” value (in vivo) is 830 to 5650 ng/mL. Further, under “overall”, the bioavailability – broadly, the share of a dose that reaches the circulation, judged against a reference dose that is usually intravenous – was 54.5%.
Consider `Cc1cn([C@H]2C[C@H](O)[C@]3(CO)C[C@H]23)c(=O)[nH]c1=O` [N-MCT, N-methanocarbathymidine], for which the antiviral activity entry in series [4] is “inhibits”. The “potency relative to reference antivirals” value in series [4] (than the antiviral drugs acyclovir, ganciclovir and cidofovir) was “equally or more potent”.
For the compound `CC(=O)OCC(CCn1cnc2cnc(N)nc21)COC(C)=O` [Famciclovir, famciclovir], the “time to clear through the kidneys” value in series [3] is “less than 24 hours”.
